# Measured values published in ChEMBL document CHEMBL5620412, “Discovery of benzofuran-2-carboxylic acid derivatives as lymphoid tyrosine phosphatase (LYP) inhibitors for cancer immunotherapy” (Eur J Med Chem, 2023).
# Active and inactive are the calls of the source. No cut-off for these calls is given here.
# Assays:
# [1] = target: T1, Tyrosine-protein phosphatase non-receptor type 5 (Homo sapiens, UniProt P54829); experiment: Inhibition of N-terminal His-tagged PTPN5 catalytic domain (1 to 294 residues) (unknown origin) expressed in Escherichia coli BL21 (DE3) cells
# T1 sequence (P54829 whole entry): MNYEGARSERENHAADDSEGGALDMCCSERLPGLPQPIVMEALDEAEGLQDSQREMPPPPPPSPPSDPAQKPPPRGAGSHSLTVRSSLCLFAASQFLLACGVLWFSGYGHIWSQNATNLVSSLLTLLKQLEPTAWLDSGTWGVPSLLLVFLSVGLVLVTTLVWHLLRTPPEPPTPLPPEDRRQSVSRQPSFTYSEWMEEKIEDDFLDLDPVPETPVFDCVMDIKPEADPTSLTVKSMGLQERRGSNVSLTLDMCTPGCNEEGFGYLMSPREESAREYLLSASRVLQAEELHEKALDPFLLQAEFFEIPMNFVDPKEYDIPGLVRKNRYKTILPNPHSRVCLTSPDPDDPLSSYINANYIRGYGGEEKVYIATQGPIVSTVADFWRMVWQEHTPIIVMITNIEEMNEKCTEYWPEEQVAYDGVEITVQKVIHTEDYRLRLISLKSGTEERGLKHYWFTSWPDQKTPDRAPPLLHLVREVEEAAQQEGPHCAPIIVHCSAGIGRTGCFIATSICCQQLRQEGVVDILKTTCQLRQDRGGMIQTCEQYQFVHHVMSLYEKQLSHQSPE
# [2] = target: T2, Tyrosine-protein phosphatase non-receptor type 12 (Homo sapiens, UniProt Q05209); experiment: Inhibition of N-terminal His-tagged PTPN12 catalytic domain (1 to 294 residues) (unknown origin) expressed in Escherichia coli BL21 (DE3) cells
# T2 sequence (Q05209 whole entry): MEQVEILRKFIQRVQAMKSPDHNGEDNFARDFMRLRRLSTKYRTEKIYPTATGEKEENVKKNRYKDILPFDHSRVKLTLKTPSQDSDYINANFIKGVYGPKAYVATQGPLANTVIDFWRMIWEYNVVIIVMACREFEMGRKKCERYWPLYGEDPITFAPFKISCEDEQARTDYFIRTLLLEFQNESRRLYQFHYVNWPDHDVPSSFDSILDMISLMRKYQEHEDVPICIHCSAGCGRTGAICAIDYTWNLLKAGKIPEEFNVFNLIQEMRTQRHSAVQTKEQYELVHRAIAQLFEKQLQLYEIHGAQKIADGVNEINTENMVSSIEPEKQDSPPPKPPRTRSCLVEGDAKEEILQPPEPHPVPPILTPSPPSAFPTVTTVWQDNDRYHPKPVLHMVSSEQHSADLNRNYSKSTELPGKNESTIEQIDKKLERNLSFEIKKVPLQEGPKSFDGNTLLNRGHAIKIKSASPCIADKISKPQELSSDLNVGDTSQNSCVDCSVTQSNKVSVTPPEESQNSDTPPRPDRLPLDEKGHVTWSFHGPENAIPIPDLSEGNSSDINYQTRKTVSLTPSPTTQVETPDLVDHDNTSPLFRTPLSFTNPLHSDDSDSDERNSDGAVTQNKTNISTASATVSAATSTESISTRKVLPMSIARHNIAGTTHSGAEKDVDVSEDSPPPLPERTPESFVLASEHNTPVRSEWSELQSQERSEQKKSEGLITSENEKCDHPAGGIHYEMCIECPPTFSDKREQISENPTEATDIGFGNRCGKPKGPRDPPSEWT
# [3] = target: T3, Tyrosine-protein phosphatase non-receptor type 22 (Homo sapiens, UniProt Q9Y2R2); experiment: Inhibition of N-terminal His-tagged LYP catalytic domain (1 to 294 residues) (unknown origin) expressed in Escherichia coli BL21 (DE3) cells using pNPP as substrate by absorbance based plate reader analysis
# T3 sequence (Q9Y2R2 whole entry): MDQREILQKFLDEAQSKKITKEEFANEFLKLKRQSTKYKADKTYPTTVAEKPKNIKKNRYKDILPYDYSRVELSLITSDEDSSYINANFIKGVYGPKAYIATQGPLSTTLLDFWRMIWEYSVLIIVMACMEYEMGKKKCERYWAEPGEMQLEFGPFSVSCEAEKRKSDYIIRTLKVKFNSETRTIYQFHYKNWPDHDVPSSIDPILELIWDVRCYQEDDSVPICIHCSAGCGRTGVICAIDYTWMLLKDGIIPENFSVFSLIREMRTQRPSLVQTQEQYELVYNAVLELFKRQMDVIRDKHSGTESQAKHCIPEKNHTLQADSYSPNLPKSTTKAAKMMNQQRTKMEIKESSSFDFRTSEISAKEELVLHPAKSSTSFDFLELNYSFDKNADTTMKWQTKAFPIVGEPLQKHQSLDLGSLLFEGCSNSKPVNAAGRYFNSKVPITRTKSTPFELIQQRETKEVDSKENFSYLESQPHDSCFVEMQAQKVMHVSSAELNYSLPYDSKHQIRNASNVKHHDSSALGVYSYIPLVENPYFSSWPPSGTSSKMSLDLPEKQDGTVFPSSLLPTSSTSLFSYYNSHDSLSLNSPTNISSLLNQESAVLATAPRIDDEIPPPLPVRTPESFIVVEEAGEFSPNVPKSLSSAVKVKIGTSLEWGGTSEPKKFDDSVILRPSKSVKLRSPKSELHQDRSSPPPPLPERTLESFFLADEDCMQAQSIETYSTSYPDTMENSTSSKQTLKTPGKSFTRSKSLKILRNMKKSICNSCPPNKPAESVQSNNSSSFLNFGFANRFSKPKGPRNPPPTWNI
# [4] = (§1) Selectivity ratio of IC50 for inhibition of N-terminal His-tagged PTP1B catalytic domain (1 to 294 residues) (unknown origin) expressed in Escherichia coli BL21 (DE3) cells to IC50 for inhibition of N-terminal His-tagged LYP catalytic domain (1 to 294 residues) (unknown origin) expressed in Escherichia coli BL21 (DE3) cells using pNPP as substrate
# MC-38 [5] = experiment: Antitumor immunity against mouse MC-38 cells implanted in syngenic C57BL/6J mouse model assessed as increase in tumor infiltration of CD8+ T cells at 50 mg/kg, IG administered twice daily for 14 days by DAPI staining based immunofluorescence analysis; format: functional, organism-based; details: time 14.0 day
# [6] = as §1, with “SSH2” for “PTP1B”
# Jurkat T = experiment: Activation of TCR signaling in […] transfected human Jurkat T cells assessed as increase in LCK phosphorylation preincubated with compound for 1 hrs followed by anti-CD3 stimulation and measured after 45 mins by immunoblot analysis; format: cell-based; details: time 105.0 min
# MC-38 [7] = experiment: Antitumor immunity against mouse MC-38 cells implanted in syngenic C57BL/6J mouse model assessed as increase in M1 tumor associated macrophage proportion in spleen at 50 mg/kg, IG administered twice daily for 14 days by flow cytometric analysis; format: functional, organism-based; details: time 14.0 day
# MC-38 [8] = experiment: Antitumor immunity against mouse MC-38 cells implanted in syngenic C57BL/6J mouse model assessed as upregulation of PD-L1 expression in macrophages at 50 mg/kg, IG administered twice daily for 14 days by flow cytometric analysis; format: functional, organism-based; details: time 14.0 day
# MC-38 [9] = experiment: Antitumor immunity against mouse MC-38 cells implanted in syngenic C57BL/6J mouse model assessed as increase in IFN-gamma expression at 50 mg/kg, IG administered twice daily for 14 days; format: functional, organism-based; details: time 14.0 day
Compound,IC50 [1],IC50 [2],IC50 [3],Ratio IC50 [4],Activity (MC-38 [5]),Ratio IC50 [6],Activity (Jurkat T),Activity (MC-38 [7]),Activity (MC-38 [8]),Activity (MC-38 [9])
O=C(O)c1cc2cc(N(Cc3ccc(-c4ccccc4)cc3)S(=O)(=O)c3ccc(-c4cccc(O)c4)cc3)ccc2o1,> 20 µM,10.6 µM,3.59 µM,1.8,–,> 5.5,–,–,–,–
COc1ccc(-c2ccc(CN(c3ccc4oc(C(=O)O)cc4c3)S(=O)(=O)c3ccc(Cl)c([N+](=O)[O-])c3)cc2)cc1,> 20 µM,12.3 µM,–,–,Active,–,inactive,Active,Active,Active
O=C(O)c1cc2cc(N(Cc3cccc(-c4ccccc4)c3)S(=O)(=O)c3ccc(-c4ccccc4)cc3)ccc2o1,> 20 µM,6.4 µM,3.23 µM,1.8,–,> 5.5,–,–,–,–

# Second part, led by results:
IC50 [1],IC50 [2],IC50 [3],Compound,Ratio IC50 [4],Activity (MC-38 [5]),Ratio IC50 [6],Activity (Jurkat T),Activity (MC-38 [7]),Activity (MC-38 [8]),Activity (MC-38 [9])
> 20 µM,8.2 µM,6.1 µM,CC(=O)C1=C(C)N=c2s/c(=C/c3ccc(OCc4ccc(C(=O)O)cc4)cc3)c(=O)n2C1c1ccc(N(C)C)cc1 (stereo unspecified),1.2,–,–,–,–,–,–
> 20 µM,11.7 µM,2.55 µM,O=C(O)c1cc2cc(N(Cc3ccc(OCc4ccccc4)cc3)S(=O)(=O)c3ccc(-c4ccccc4)cc3)ccc2o1,> 3.5,Active,> 5.5,inactive,Active,Active,Active
